Test results: patent US20150065567A1, “1-PHENYLALKANECARBOXYLIC ACID DERIVATIVES FOR THE TREATMENT OF ALZHEIMER'S DISEASE AND MULTIPLE SCLEROSIS” (Chiesi Farmaceutici S.p.A., priority 2013, published 2015)
Read-outs that look alike come from different tables or passages of the source.

Key:
[1] = system: astrocyte-microglia co-culture (mixed glial cell culture) exposed to Aβ1-42; assay: M1/M2 marker mRNA expression (RT-qPCR) in mixed glial culture exposed to Aβ1-42; assay type: cell-based, C57BL/6 mice
Method: C57BL/6 mice are purchased from Charles River. Mixed glial cell cultures were prepared from the brains of 1-3 day newborn mice. Briefly, after carefully removing meninges and large blood vessels, the brains were pooled and then dissociated by manual dispersion with a fire-polished Pasteur pipette. The cells were allowed to attach and grow at 37° C. in DMEM supplemented with 10% fetal bovine serum (FBS) (Euroclone), 4 mM L-glutamine, 200 U/ml penicillin/streptomycin in a water saturated atmosphere containing 5% CO2 for two week.
Soluble Aβ 1-42 were dissolved in sterile water to a final concentration of 2.5 mM, divided into aliquots and frozen. For experiments, mixed glial cells were incubated with soluble (not aggregated) Aβ 1-42, added at a concentration of 10 μM, in presence of CHF5074 (solved in 0.2% DMSO) or vehicle. Incubation was carried out for different times (from 1 to 8 days) in a Neurobasal/B27 medium. At the end of these periods, neuronal cell death by necrosis was evaluated by measuring the amount of lactate dehydrogenase (LDH) released into the culture medium using the CytoTox 96-non-radioactive cytotoxicity assay (Promega).
Total RNA was purified from cultured cells using the RNeasy Mini Kit for total RNA extractions (Qiagen). RNA was reverse transcribed using the Quantitect® Reverse Transcription Kit (Qiagen) with optimized mix of oligo-dT and random primers as primer and 1 μg of total RNA from mixed primary culture or co-culture. The reverse transcription reaction were performed in a total volume of 20 μL containing 5×RT-Buffer (that included dNTPs and Mg^2+), 50 U RT (Reverse trascriptase), 20 U RNase Inhibitor in RNAse-DNase free water for 10 min at 25° C., 2 h at 37° C. and 10 min at 85° C. Individual 25 μL SYBR Green real-time PCR reactions consisted of 2 μL of cDNA, 12.5 μL of 2× iQ™ SYBR Green Supermix (Bio-Rad), and 1.5 μL of each 10 μM optimized forward and reverse primers in 7.5 μL RNase-free water.
The PCR were performed on a Bio-Rad iCycler Detection System using a 3-stage program: 3 min at 50° C., 10 min at 95° C. and 40 cycles of 30 sec at 94° C. and 45 secat 60° C. For standardization of quantification, β-actin were amplified simultaneously. Sets of primer were designed to amplify by Real-time RT-PCR (q-RT-PCR) and RT-PCR genes expressed by classically activated (M1) microglia: • TNFα (Tumor Necrosis Factor α); • IL-1β (Interleukin1β); • iNOS (inducible Nitric Oxide Sinthase); and by alternatively activated (M2) microglia: • ARG1 (Arginase 1); • MRC1 (C-type mannose receptor 1); • TREM2 (Triggering Receptor Expressed on Myeloid cells-2). Primer3plus was used as primer designing tool and then checked the oligos (synthetized by Invitrogen) to verify melting temperatures and quality of the sequences.
Data were analyzed with Student's t-test for independent data. P<0.05 was considered as significant.
The effect of CHF5074 on the inflammatory response induced by Aβ was examined. Mixed astrocyte-microglia co-cultures were exposed to Aβ with or without CHF5074 at 3 μM concentration and examined for cytokine expression after 2 or 8 days. For classical activation of microglia, the expression of iNOS, beside TNFα and IL-1β was analyzed (see FIG. 2).
The alternative microglial activation markers (M2) in mixed glial cultures exposed to Aβ with and without CHF5074 for 2 days or 8 days were also investigated (see FIG. 3).

[2] = system: Aβ42 secretion in human neuroglioma cells over-expressing the Swedish mutated APP (H4swe); conditions: read-out: IC50 for lowering Aβ42 secretion; cited from earlier work
[3] = target: COX-1 (Homo sapiens, UniProt P23219); conditions: concentrations up to 100 μM; cited from earlier work
COX-1, sequence (P23219 24-599): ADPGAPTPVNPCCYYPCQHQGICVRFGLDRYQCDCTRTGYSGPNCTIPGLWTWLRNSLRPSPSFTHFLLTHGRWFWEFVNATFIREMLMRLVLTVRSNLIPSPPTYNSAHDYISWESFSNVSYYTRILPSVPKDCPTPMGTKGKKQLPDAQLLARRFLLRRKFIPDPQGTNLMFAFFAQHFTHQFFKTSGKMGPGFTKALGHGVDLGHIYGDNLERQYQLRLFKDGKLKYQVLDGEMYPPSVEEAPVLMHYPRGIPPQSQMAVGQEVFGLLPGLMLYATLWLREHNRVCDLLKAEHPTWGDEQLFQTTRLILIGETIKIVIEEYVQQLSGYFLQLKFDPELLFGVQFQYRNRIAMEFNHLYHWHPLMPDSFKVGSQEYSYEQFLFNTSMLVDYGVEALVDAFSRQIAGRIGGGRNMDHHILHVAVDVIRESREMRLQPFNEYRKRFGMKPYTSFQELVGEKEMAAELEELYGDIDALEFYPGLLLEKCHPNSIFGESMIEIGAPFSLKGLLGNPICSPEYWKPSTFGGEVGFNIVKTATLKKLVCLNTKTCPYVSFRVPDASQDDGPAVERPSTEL

[4] = target: T1, COX-2 (Homo sapiens, UniProt P35354); conditions: concentrations up to 300 μM; cited from earlier work
T1 sequence (P35354 18-604): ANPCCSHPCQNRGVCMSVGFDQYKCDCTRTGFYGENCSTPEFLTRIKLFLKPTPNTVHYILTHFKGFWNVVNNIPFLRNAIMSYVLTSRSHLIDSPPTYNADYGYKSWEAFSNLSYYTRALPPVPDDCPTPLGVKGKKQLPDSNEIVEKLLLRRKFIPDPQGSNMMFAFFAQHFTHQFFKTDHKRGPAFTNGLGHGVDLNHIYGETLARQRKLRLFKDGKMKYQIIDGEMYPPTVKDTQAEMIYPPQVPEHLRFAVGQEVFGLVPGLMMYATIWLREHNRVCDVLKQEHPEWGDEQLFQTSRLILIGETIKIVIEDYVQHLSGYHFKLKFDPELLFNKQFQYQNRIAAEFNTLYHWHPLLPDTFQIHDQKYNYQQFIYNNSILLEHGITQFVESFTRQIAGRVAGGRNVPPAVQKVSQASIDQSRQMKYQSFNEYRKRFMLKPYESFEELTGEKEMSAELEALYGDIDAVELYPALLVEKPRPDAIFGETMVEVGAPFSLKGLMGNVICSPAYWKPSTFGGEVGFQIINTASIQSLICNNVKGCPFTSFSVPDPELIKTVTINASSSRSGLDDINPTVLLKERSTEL

[5] = system: Notch intracellular cleavage in human embryonic kidney 293swe cells; conditions: at 5 μM, HEK 293swe cells; cited from earlier work
[6] = system: NICD-responsive genes; conditions: at 100 μM; cited from earlier work
[7] = mice, cited from earlier work
[8] = rats; cited from earlier work
[9] = stated after the mice and rats data; cited from earlier work
[10] = guinea-pigs, cited from earlier work
[11] = dogs, cited from earlier work
[12] = system: transgenic mouse models of AD; conditions: cited from earlier work
[13] = system: TNFα; conditions: healthy subjects, short-term administration; cited from earlier work
[14] = system: AD patients; conditions: cited from earlier work
[15] = system: dendritic spine density; conditions: mice; cited from earlier work

Compound: O=C(O)C1(c2ccc(-c3ccc(Cl)c(Cl)c3)c(F)c2)CC1 [CHF 5074, 1-(3′,4′-dichloro-2-fluorobiphenyl-4-yl)cyclopropanecarboxylic acid]
- ARG1 expression ([1]; 3 μM with 10 μM Aβ1-42, 2 days): no change
- IL-1β mRNA expression ([1]; 3 μM with 10 μM Aβ1-42, 2 days): significantly decreased
- TNFα mRNA expression ([1]; 3 μM with 10 μM Aβ1-42, 2 days): significantly decreased
- iNOS mRNA expression ([1]; 3 μM with 10 μM Aβ1-42, 2 days): significantly decreased
- increase of TREM2 mRNA over the basal value ([1]; 3 μM with 10 μM Aβ1-42, 2 days): ~60%
- MRC1 mRNA level ([1]; 3 μM with 10 μM Aβ1-42, 2 days, Aβ alone reduced MRC1 to about 50% of basal): near a three-fold increase
- M2 mRNAs (MRC1, TREM2 and ARG1) expression ([1]; 3 μM with 10 μM Aβ1-42, 8 days): None of the tested M2 mRNAs (MRC1, TREM2 and ARG1) appeared modified
- TNFα, IL1β and iNOS (M1) expression levels ([1]; 3 μM with 10 μM Aβ1-42, 8 days): does not modify
- IC50 [2]: 3.6 µM
- inhibitory activity on COX-1 [3]: does not display inhibitory activity
- inhibitory activity on COX-2 [4]: does not display inhibitory activity
- effects on Notch intracellular cleavage [5]: no effects were observed
- expression profile of several NICD-responsive genes [6]: does not alter
- oral absorption ([7]; oral): 74%
- plasma elimination t1/2 [7]: 12 h
- oral absorption [8]: 50%
- brain levels as % of the corresponding plasma concentrations [9]: 3-14%
- plasma elimination half-life t1/2 ([10]; after oral administration): ≈ 30 hours
- brain penetration [10]: 3-9%
- oral absorption ([11]; oral route): 80-100%
- plasma elimination t1/2 [11]: ≈ 24 hours
- tolerability ([12]; 60 mg/kg/day, prolonged treatment for 4-9 months): well tolerated
- neuropathological and behavioral activity ([12]; oral doses of 60 mg/kg/day): active
- TNFα level in cerebrospinal fluid [13]: reduce TNFα level

Compound: CC(C)[C@H](O)C(=O)N[C@@H](C)C(=O)N[C@@H]1C(=O)N(C)CCc2ccccc21 [semagacestat]
- cognition and ability to complete activities of daily living versus placebo ([14]; interim analysis of two Phase 3 trials): worsened over time to a statistically significantly higher rate
- rate of skin cancer compared to placebo ([14]; two 21-month Phase 3 trials, more than 2,600 AD patients): increased rate of skin cancer
- dendritic spine density [15]: decrease dendritic spine density
